Values joined by “and” are separate entries in the source; they are usually repeats but may differ in a detail not shown here. Equal values may be shown once. Read-outs that look alike come from different tables or passages of the source.
What was measured:
[1] = target: T1, HSA (Homo sapiens, UniProt P02768); settings: ref [41]; cited from earlier work
T1 construct: purchased Sigma-Aldrich

[2] = target: T1, HSA; settings: ref [42]; cited from earlier work
[3] = target: human serum albumin (HSA) (Homo sapiens, UniProt P02768); assay: Bound percentage by HPLC on HSA column, extrapolation to zero organic modifier; assay type: in vitro ADME; settings: for Bound percentage (b%), average: average of IPA, EtOH, MeOH
Procedure: (§1) Chromatographic columns containing proteins can be used to determine the percentage of drug binding. A plot of the natural logarithm of the retention factors against the proportion of organic modifiers was created. […] The intercept of these linear equations can be used to calculate the bound percentage according to Equation (4) (see in Section 3.2).
(§2) Chromatographic measurements were carried out on two separate HPLC systems. The AGP binding study was performed on a Waters 2695e chromatographic system paired with a Waters 2996 PDA detector, controlled by Empower 3 FR5 (Waters Corp., Milford, MA, USA), while the HSA binding study was performed on an Agilent 1100 HPLC system, consisting of an inline degasser (G1322A), a quaternary pump (G1311A), an automatic injector (G1329A) paired with sample thermostat (G1330A), a column thermostat (G1316A), and a diode array detector (G1315A) with Agilent Chemstation B04.03-SP2 software (Agilent, Bronnwald, Germany). For the binding studies, two protein-based chiral stationary phases were utilized. The chromatographic binding study for AGP was conducted on a ChromTech Chiral-AGP column (150 mm × 4.0 mm; ChromTech Ltd., Congleton, UK), while the binding study for HSA was performed on a Daicel Chiralpak HSA column (50 mm × 4.0 mm; Daicel Corp., Osaka, Japan). The detection wavelength was 210 nm for all measurements. The stock solutions of PPIs were prepared at a concentration of 1 mg/mL in MeOH. Subsequent dilutions were prepared using water. The injected samples were mixed and diluted from the stock solutions. The final concentration for the eutomer was 0.2 mg/mL, and for the distomer, it was 0.1 mg/mL. A volume of 2 μL was injected. To mitigate the instability of PPIs in aqueous solutions, the samples were kept at a temperature of 4 °C. Cooling the samples to 4 °C prevented significant decomposition for a period of 24 h. After 24 h, new samples were prepared for injection. Chromatographic parameters were calculated based on the following equations. The retention factor (k) was calculated as:(1) k=(tr−t0)/t0 where tr is the retention time of the investigated analyte, and t0 is the dead time, determined as the first peak appearance in the chromatogram. Resolution was calculated based on the following equation:(2) Rs=2(t2−t1)/(w1+w2) where t2 and t1 are the retention times of the second and first eluted enantiomers, respectively, while w is the peak width. The separation factor (α) was calculated as follows:(3) α=k2/k1 where k1 and k2 are the retention factors of the first- and second-eluting enantiomers, respectively. The k values were also used to calculate the protein-bound percentage (b%) using Equation (4):(4) b%=k/1+k×100

[4] = system: α1-acid glycoprotein (AGP); assay: Bound percentage by HPLC on AGP column, extrapolation to zero organic modifier; assay type: in vitro ADME, human; settings: for Bound percentage (b%), average: average of IPA, EtOH, MeOH
Procedure: as §1
as §2, with “Cooling the samples to 4 °C prevented significant decomposition for a period of 24 h.” left out

[5] = extrapolation to zero percent EtOH
[6] = extrapolation to zero percent IPA
[7] = extrapolation to zero percent MeOH

Sequence of human serum albumin (HSA) (P02768 25-609): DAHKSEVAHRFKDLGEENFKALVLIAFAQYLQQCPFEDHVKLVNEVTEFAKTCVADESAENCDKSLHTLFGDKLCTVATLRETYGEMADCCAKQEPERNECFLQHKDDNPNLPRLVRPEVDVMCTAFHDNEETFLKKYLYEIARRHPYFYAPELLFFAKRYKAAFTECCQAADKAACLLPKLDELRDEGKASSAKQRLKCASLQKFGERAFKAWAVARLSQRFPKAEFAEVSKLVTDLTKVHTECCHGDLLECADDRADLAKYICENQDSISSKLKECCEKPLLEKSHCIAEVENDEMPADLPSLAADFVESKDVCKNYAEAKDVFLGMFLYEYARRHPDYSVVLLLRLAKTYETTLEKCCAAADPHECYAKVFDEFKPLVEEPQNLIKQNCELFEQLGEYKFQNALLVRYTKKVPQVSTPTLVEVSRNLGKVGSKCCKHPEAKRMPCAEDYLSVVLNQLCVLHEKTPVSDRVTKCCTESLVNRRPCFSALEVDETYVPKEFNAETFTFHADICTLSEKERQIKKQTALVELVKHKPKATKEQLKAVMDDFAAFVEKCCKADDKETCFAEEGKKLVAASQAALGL
T1 sequence (P02768 25-609): as above

In the case of `COc1ccc2[nH]c([S+]([O-])Cc3ncc(C)c(OC)c3C)nc2c1` (stereo not drawn) [Omeprazole, omeprazole], the logK [1] is listed as 4.61.
For `Cc1c(OCC(F)(F)F)ccnc1C[S@@+]([O-])c1nc2ccccc2[nH]1` [R-lansoprazole, dexlansoprazole], the logK [2] is listed as “logK = 3.44 Binding to subdomain IIA”, the “Bound percentage (b%), average” value [3] is listed as 92.45% and 92.45 ± 0.59% and the “Bound percentage (b%)” value [3, 5] is listed as 92.69%. The “Bound percentage (b%)” value [3, 6] was 91.77%, the “Bound percentage (b%)” value [3, 7] was 92.89% and the “Bound percentage (b%), average” value [4] was 97.56% and 97.56 ± 1.39%. For the same compound, the “Bound percentage (b%)” value [4, 5] was 97.60%, the “Bound percentage (b%)” value [4, 6] was 98.93% and the “Bound percentage (b%)” value [4, 7] was 96.16%.
With `Cc1c(OCC(F)(F)F)ccnc1C[S@+]([O-])c1nc2ccccc2[nH]1` [S-lansoprazole] the “Bound percentage (b%), average” value [3] was 94.64% and 94.64 ± 0.89%, the “Bound percentage (b%)” value [3, 5] was 94.85% and the “Bound percentage (b%)” value [3, 6] was 93.67%. For the same compound, the “Bound percentage (b%)” value [3, 7] was 95.42%, the “Bound percentage (b%), average” value [4] was 96.86% and 96.86 ± 1.79% and the “Bound percentage (b%)” value [4, 5] was 96.92%. The “Bound percentage (b%)” value [4, 6] was 98.62% and the “Bound percentage (b%)” value [4, 7] was 95.04%.

Reference: paper PMC11477000, “Enantioselective Binding of Proton Pump Inhibitors to Alpha1-Acid Glycoprotein and Human Serum Albumin—A Chromatographic, Spectroscopic, and In Silico Study” (International Journal of Molecular Sciences, 2024)
